Data reported in ChEMBL document CHEMBL1151214, “Pentacyclic triterpenoid esters from the fruits of Bruguiera cylindrica” (J Nat Prod, 2004).
Converted amounts (≈) assume the structure as drawn. The source made the active and inactive calls. No cut-off for these calls is given here.

Tests used:
Format in all cases: functional, cell-based
BC = assay: Cytotoxicity against human BC cells by colorimetric method
KB = assay: Cytotoxicity against human KB cells by colorimetric method
NCI-H187 = assay: Cytotoxicity against human NCI-H187 cells by colorimetric method

SMILES | Activity (BC) | Activity (KB) | Activity (NCI-H187) | IC50 (NCI-H187) [µg/mL]
COc1cc(/C=C/C(=O)O[C@@H]2CC[C@]3(C)[C@H]4CC[C@]5(C)C(=CC[C@@]6(C)CCC(C)(C)C[C@H]65)[C@]4(C)CC[C@H]3C2(C)C)ccc1O | inactive | inactive | inactive | 
COc1cc(/C=C\C(=O)O[C@@H]2CC[C@]3(C)[C@H]4CC[C@]5(C)C(=CC[C@@]6(C)CCC(C)(C)C[C@H]65)[C@]4(C)CC[C@H]3C2(C)C)ccc1O | inactive | inactive |  | 12.2 (≈ 20.2 µM)
CC1(C)CC[C@]2(C)CC=C3[C@]4(C)CC[C@H]5C(C)(C)[C@H](OC(=O)/C=C/c6ccc(O)cc6)CC[C@]5(C)[C@H]4CC[C@@]3(C)[C@@H]2C1 | inactive | inactive | inactive | 
COc1cc(/C=C/C(=O)O[C@H]2CC[C@]3(C)[C@H]4CC[C@]5(C)C(=CC[C@@]6(C)CCC(C)(C)C[C@H]65)[C@]4(C)CC[C@H]3C2(C)C)ccc1O | inactive | inactive | inactive | 
CC1(C)CC[C@]2(C)CC=C3[C@]4(C)CC[C@H]5C(C)(C)[C@H](OC(=O)/C=C\c6ccc(O)cc6)CC[C@]5(C)[C@H]4CC[C@@]3(C)[C@@H]2C1 | inactive | inactive |  | 20 (≈ 34.9 µM)
